This note sets out measurements from ChEMBL document CHEMBL1201862, “PubChem BioAssay data set” (2004).

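Five compound concentrations were applied to cells in 96-well plates for 48 hours; endpoints were derived by simple linear interpolation of the resulting dose-response curve. The concentration for 50% growth inhibition is given as GI50.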 The source made the active and inactive calls. Rule as the data show it: active = GI50 up to about 1.1 µM and inactive = higher. Starred links: 1 amine or outer side, 2 acyl side, 3 side chain; linkers in the order of their positions; H or OH if unused. Positions of bridges follow the written chain, without caps; N, C: chain ends. Non-standard residues stand in square brackets, D forms with d. Residues, ends and D or L forms follow the SMILES beside them. ξ: configuration not given here. *: point of attachment. γ4hArg(2R,3R-(OH)2) = N=C(N)NCCC[C@H](N[*:1])[C@@H](O)[C@@H](O)C(=O)[*:2]; Gln(3S,4R-Me2) = C[C@H]([C@H](N)C(=O)O)[C@@H](C)C(N)=O; X50 = CC(C)C[C@H](C)[C@@H](O)[C@@H](C)C(=O)*; X51 = COC(c1ccc(O)cc1)C(N[*:1])C(=O)[*:2]; NMeQ = CN[C@@H](CCC(N)=O)C(=O)O; Thr(3ξ) = CC(O)[C@H](N)C(=O)O; NMeA = CN[C@@H](C)C(=O)O

Some test systems named below: SK-MEL-5; IGROV-1; A549; U-251; HOP-92; OVCAR-5; KM12; OVCAR-4; Hs-578T; SK-MEL-2; MDA-MB-435; HCT-15; NCI-H460; HL-60; RXF 393; 786-0; HOP-62; TK-10; EKVX; Malme-3M.
Test in all cases: NCI-60 cell line screen, 48 h

Consider `CN(C)/N=C/c1cn(C)c(=O)n(C)c1=O`, for which the GI50 with SK-MEL-5, in the experiment on IGROV-1, in the experiment with A549, with U-251, in the experiment with HOP-92 and in the experiment with OVCAR-5 was > 100 µM (inactive) each time. For the same molecule, the GI50 is > 100 µM (inactive) with KM12; > 100 µM (inactive) in the experiment with OVCAR-4; > 100 µM (inactive) with Hs-578T; > 100 µM (inactive) in the experiment on SK-MEL-2; > 100 µM (inactive) in the experiment with MDA-MB-435; more than 100 µM in the experiment on HCT-15. Also, the GI50 in the experiment on NCI-H460, in the experiment on HL-60, in the experiment on RXF 393, in the experiment on 786-0, in the experiment with HOP-62 and in the experiment with TK-10 was > 100 µM (inactive) each time. In addition, the GI50 in the experiment on EKVX and in the experiment with Malme-3M was > 100 µM (inactive) throughout.

On to `COc1ccc(/C(CC2OC(=O)c3ccccc32)=N\NC(N)=O)cc1` (stereo not given), for which the GI50 in the experiment on SK-MEL-5, with IGROV-1, with A549, in the experiment on U-251, in the experiment on HOP-92 and with OVCAR-5 was > 100 µM (inactive) throughout. Besides, the GI50 in the experiment on KM12 is > 100 µM (inactive); in the experiment on OVCAR-4, > 100 µM (inactive); with Hs-578T it was > 100 µM (inactive); with SK-MEL-2, > 100 µM (inactive); in the experiment with MDA-MB-435 it was > 100 µM (inactive); in the experiment on HCT-15 it was more than 100 µM. In addition, the GI50 in the experiment with NCI-H460, in the experiment with HL-60, in the experiment on RXF 393, with 786-0, in the experiment with HOP-62 and in the experiment on TK-10 was > 100 µM (inactive) in each case. The GI50 in the experiment with EKVX and in the experiment with Malme-3M was > 100 µM (inactive) each time.

Consider `CSC(=N/N=C(\C)c1ccc(S(=O)(=O)N(C)c2ccccc2)cc1)SC`, for which the GI50 in the experiment on SK-MEL-5 was > 100 µM (inactive); with IGROV-1, > 61.4 µM (inactive); in the experiment on A549, > 100 µM (inactive); with U-251 it was > 51.9 µM (inactive); in the experiment on HOP-92, > 43.8 µM (inactive); with OVCAR-5, > 66.5 µM (inactive). The GI50 in the experiment on KM12 was > 64.4 µM (inactive); in the experiment on OVCAR-4 it was > 58.6 µM (inactive); in the experiment on Hs-578T, > 59.4 µM (inactive); with SK-MEL-2, > 62.2 µM (inactive); in the experiment on MDA-MB-435, > 62.8 µM (inactive); with HCT-15, more than 66.7 µM. Moreover, the GI50 with NCI-H460 was > 100 µM (inactive); with HL-60 it was > 43.5 µM (inactive); in the experiment on RXF 393 it was 27.7 µM (inactive); in the experiment with 786-0, > 64.9 µM (inactive); in the experiment on HOP-62, > 62.5 µM (inactive); in the experiment on TK-10 it was > 100 µM (inactive). For the same molecule, the GI50 in the experiment on EKVX is > 65 µM (inactive); in the experiment with Malme-3M, > 100 µM (inactive).

For the molecule `COC(c1ccc(O)cc1)C1NC(=O)[C@H](CCC(N)=O)N(C)C(=O)[C@H](CC(C)C)NC(=O)[C@@H](CCCN=C(N)N)NC(=O)[C@H](C(C)O)NC(=O)[C@@H](NC(=O)[C@@H](NC(=O)[C@H](O)[C@H](O)[C@H](CCCN=C(N)N)NC(=O)[C@H](C)NC(=O)[C@H](C)[C@H](O)[C@@H](C)CC(C)C)[C@@H](C)[C@@H](C)C(N)=O)[C@@H](C)OC(=O)[C@H](C)N(C)C1=O` (stereo partly drawn) (X50-A[γ4hArg(2R,3R-(OH)2)][Gln(3S,4R-Me2)]T[Thr(3ξ)][dR]L[NMeQ][X51][NMeA]; ester 4-C), the GI50 is 0.0682 µM (active) in the experiment with SK-MEL-5; 0.0746 µM (active) in the experiment on IGROV-1; 0.141 µM (active) in the experiment on A549; 0.121 µM (active) with U-251; 0.138 µM (active) in the experiment on HOP-92; 0.167 µM (active) in the experiment with OVCAR-5. Moreover, the GI50 in the experiment with KM12 is 0.121 µM (active); with OVCAR-4, 0.134 µM (active); in the experiment with Hs-578T it was 0.0405 µM (active); in the experiment with SK-MEL-2 it was 0.247 µM (active); in the experiment on MDA-MB-435, 0.145 µM (active); in the experiment with HCT-15, 0.133 µM. In addition, the GI50 with NCI-H460 is 0.0604 µM (active); with HL-60, 0.167 µM (active); in the experiment with RXF 393, 0.267 µM (active); in the experiment on 786-0, 0.204 µM (active); with HOP-62, 0.15 µM (active); in the experiment on TK-10, 0.146 µM (active). The results for the GI50 in the experiment with EKVX and in the experiment on Malme-3M were 0.0995 µM (active) and 0.084 µM (active), respectively.
